Experimental data from patent publication US9458124B2, “Substituted pyran derivatives” (Wayne State University, priority 2013, dated 2016).

Assays:
[1] = target: T1, DAT (Rattus norvegicus, UniProt P23977); experiment: DAT uptake inhibition, [3H]DA, rat brain; assay type: biochemical; conditions: number in parentheses within cell
T1 construct: from tissue; host or cells: rat brain

[2] = target: T2, SERT (Rattus norvegicus, UniProt P31652); experiment: SERT uptake inhibition, [3H]-5-HT, rat brain; assay type: biochemical; conditions: number in parentheses within cell
T2 construct: from tissue; host or cells: rat brain

[3] = test system: rats; experiment: Forced swimming test (animal model of depression), duration of immobility; assay type: in vivo, rat; conditions: sub-chronic oral administration, P<0.01
Description: Compound D-525 was evaluated in Force Swim test which is a well-known animal model of depression. The test procedure consisted of a pretest and test session separated by 24 h. Drugs or vehicle were administered orally (p.o) by following the timeline as described in the standard protocol. Each rat underwent a 5-min swim session following drug administration, which was videotaped and scored later.
All drugs were prepared freshly on the test days. Compound D-525 and imipramine were dissolved in deionized water. All drugs and vehicles were administered p.o. D-525 was administered at a dose of 12.5 and 25 mg/kg. An individual, blinded to the treatment, scored the videotapes for immobility. Immobility scores were analyzed by one way ANOVA test which indicated significant difference between drug treated animals and vehicle.
FIG. 11 provides a bar chart showing the effect of sub-chronic oral administration of vehicle and D-525 on the duration of immobility in the forced swimming test in rats. […] Asterisks indicate a statistically significant difference toward control group that received saline p.o. **P<0.01. Each treatment group contained four to seven rats.

[4] = target: T3, NET (Rattus norvegicus, UniProt Q63380); experiment: NET uptake inhibition, [3H]DA, rat brain; assay type: biochemical; conditions: number in parentheses within cell
T3 construct: from tissue; host or cells: rat brain
T3 sequence (Q63380 1-617): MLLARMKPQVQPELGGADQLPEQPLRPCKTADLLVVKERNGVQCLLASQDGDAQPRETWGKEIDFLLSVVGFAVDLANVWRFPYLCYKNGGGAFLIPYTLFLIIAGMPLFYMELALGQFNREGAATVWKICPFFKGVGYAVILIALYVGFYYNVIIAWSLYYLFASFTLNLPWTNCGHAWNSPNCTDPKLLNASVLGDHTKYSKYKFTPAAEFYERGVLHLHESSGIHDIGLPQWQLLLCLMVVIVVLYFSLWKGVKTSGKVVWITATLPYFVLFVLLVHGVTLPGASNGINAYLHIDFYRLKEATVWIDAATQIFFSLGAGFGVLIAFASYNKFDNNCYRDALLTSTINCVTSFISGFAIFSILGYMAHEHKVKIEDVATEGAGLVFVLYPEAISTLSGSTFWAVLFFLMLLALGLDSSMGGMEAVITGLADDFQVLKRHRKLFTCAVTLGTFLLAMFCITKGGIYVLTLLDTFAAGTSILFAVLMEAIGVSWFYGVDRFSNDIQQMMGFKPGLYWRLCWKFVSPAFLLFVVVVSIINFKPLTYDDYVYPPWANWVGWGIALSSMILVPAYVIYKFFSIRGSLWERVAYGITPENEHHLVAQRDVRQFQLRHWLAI

T1 sequence (P23977 whole entry): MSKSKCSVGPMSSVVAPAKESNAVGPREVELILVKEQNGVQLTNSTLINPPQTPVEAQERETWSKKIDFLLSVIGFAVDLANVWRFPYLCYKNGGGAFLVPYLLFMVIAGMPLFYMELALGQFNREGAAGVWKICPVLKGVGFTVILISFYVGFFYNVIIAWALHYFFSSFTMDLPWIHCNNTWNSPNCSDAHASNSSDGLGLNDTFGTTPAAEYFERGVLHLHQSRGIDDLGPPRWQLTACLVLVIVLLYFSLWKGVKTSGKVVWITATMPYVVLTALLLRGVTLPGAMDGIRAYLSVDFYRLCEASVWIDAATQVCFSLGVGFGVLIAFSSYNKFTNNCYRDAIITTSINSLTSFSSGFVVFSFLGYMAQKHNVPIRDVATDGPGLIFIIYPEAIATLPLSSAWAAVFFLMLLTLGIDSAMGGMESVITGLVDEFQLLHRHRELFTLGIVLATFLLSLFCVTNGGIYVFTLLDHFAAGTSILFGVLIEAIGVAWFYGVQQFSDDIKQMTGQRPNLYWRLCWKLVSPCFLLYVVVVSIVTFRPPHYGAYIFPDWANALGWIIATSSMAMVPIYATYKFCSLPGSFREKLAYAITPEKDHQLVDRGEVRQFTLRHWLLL
T2 sequence (P31652 whole entry): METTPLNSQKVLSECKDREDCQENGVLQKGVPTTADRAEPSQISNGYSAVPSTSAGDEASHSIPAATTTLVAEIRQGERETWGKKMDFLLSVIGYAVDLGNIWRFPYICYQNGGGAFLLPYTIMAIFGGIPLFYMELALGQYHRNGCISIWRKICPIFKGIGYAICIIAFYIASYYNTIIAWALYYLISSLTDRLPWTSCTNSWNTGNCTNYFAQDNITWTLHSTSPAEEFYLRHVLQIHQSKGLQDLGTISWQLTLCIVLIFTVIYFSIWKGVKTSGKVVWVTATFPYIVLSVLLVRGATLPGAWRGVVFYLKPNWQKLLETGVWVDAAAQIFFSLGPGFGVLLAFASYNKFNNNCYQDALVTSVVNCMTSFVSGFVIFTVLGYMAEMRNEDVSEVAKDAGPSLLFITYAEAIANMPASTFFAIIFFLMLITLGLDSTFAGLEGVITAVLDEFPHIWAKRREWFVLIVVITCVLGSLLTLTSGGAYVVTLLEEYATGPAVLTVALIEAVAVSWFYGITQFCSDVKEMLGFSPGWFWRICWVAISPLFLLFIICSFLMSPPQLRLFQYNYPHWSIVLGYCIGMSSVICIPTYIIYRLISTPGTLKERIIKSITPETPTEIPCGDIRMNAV

SMILES: Cn1c(=O)oc2cc(CN[C@@H]3CO[C@H](C(c4ccc(F)cc4)c4ccc(F)cc4)C[C@H]3O)ccc21 [6f, D-525, 6-((((3R,4R,6S)-6-(bis(4-fluorophenyl)methyl)-4-hydroxytetrahydro-2H-pyran-3-yl)amino)methyl)-3-methylbenzo[d]oxazol-2(3H)-one]
- Ki [1]: 25.3 ± 6.2 nM
- Ki [2]: 26.9 ± 2.6 nM
- effect on duration of immobility in the forced swimming test vs vehicle (Dunnett's analysis) ([3]; 12 mg/kg): statistically significant different compared to vehicle
- effect on duration of immobility in the forced swimming test vs vehicle (Dunnett's analysis) ([3]; 25 mg/kg): statistically significant different compared to vehicle
- Ki [4]: 25.8 ± 7.7 nM
